Assay results as given in patent US11608337B2, “Heterocyclic compounds as immunomodulators” (Incyte Corporation, priority 2016, dated 2023).

molecular target: PD-1/PD-L1 protein/protein interaction (Homo sapiens (Human), UniProt Q9NZQ7); assay: PD-1/PD-L1 Homogeneous Time-Resolved Fluorescence (HTRF) Binding Assay; settings: recombinant human PD-L1 (19-238) His-tag, human PD-1 (25-167) Fc tag; 25° C., PBS pH 7.4
Procedure: Example A. PD-1/PD-L1 Homogeneous Time-Resolved Fluorescence (HTRF) Binding Assay
The assays were conducted in a standard black 384-well polystyrene plate with a final volume of 20 μL. Inhibitors were first serially diluted in DMSO and then added to the plate wells before the addition of other reaction components. The final concentration of DMSO in the assay was 1%. The assays were carried out at 25° C. in the PBS buffer (pH 7.4) with 0.05% Tween-20 and 0.1% BSA. Recombinant human PD-L1 protein (19-238) with a His-tag at the C-terminus was purchased from AcroBiosystems (PD1-H5229). Recombinant human PD-1 protein (25-167) with Fc tag at the C-terminus was also purchased from AcroBiosystems (PD1-H5257). PD-L1 and PD-1 proteins were diluted in the assay buffer and 10 μL was added to the plate well. Plates were centrifuged and proteins were preincubated with inhibitors for 40 minutes. The incubation was followed by the addition of 10 μL of HTRF detection buffer supplemented with Europium cryptate-labeled anti-human IgG (PerkinElmer-AD0212) specific for Fc and anti-His antibody conjugated to SureLight®-Allophycocyanin (APC, PerkinElmer-AD0059H). After centrifugation, the plate was incubated at 25° C. for 60 min. before reading on a PHERAstar FS plate reader (665 nm/620 nm ratio). Final concentrations in the assay were […], 10 nM PD-L1, 1 nM europium anti-human IgG and 20 nM anti-His-Allophycocyanin. IC50 determination was performed by fitting the curve of percent control activity versus the log of the inhibitor concentration using the GraphPad Prism 5.0 software.
Data obtained for the Example compounds using the PD-1/PD-L homogenous time-resolved fluorescence (HTRF) binding assay described in Example A is provided in Table 1.

Sequence of PD-1/PD-L1 protein/protein interaction (Q9NZQ7 19-238): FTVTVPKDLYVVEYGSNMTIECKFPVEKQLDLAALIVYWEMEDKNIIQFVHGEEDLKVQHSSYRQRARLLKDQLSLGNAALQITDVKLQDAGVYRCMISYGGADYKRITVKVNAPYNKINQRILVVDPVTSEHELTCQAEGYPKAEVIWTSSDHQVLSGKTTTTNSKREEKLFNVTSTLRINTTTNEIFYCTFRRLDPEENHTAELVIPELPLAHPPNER

IC50, ≤ 0.1 µM:
Cc1c(-c2cccc(C(N)=O)c2)cccc1-c1nc2c(s1)CNCC2 [Example 38, 2′-methyl-3′-(4,5,6,7-tetrahydro[1,3]thiazolo[5,4-c]pyridin-2-yl)biphenyl-3-carboxamide]
Cc1c(-c2cccc(CC(N)=O)c2)cccc1-c1nc2c(s1)CNCC2 [Example 39, 2-[2′-methyl-3′-(4,5,6,7-tetrahydro[1,3]thiazolo[5,4-c]pyridin-2-yl)biphenyl-3-yl]acetamide]
Cc1c(-c2nc3c(s2)CNCC3)cccc1-c1cccc2c1cnn2C [Example 40, 2-[2-methyl-3-(1-methyl-1H-indazol-4-yl)phenyl]-4,5,6,7-tetrahydro[1,3]thiazolo[5,4-c]pyridine]
